These results are taken from ChEMBL document CHEMBL3638383, “Pyrimidone derivatives” (2015).

For the assay, the target named is Glycogen synthase kinase-3 beta splice variant X1 (Bos taurus, UniProt A0A059UE90). Kind of assay: Inhibition Assay: A mixture containing 100 mM MES-sodium hydroxide (pH 6.5), 1 mM magnesium acetate, 0.5 mM EGTA, 5 mM, β-mercaptoethanol, 0.02% Tween 20, 10% glycerol, 12 µg/ml P-GS1, 41.7 µM [γ-^32P] ATP (68 kBq/ml), bovine cerebral TPK1 and a compound shown in Table (a final mixture contained 1.7% DMSO deriving from a solution of a test compound prepared in the presence of 10% DMSO) was used as a reaction system. The phosphorylation was started by adding ATP, and the reaction was conducted at 25° C. for 2 hours, and then stopped by adding 21% perchloric acid on ice cooling. The reaction mixture was centrifuged at 12,000 rpm for 5 minutes and adsorbed on P81 paper (Whatmann), and then the paper was washed four times with 75 mM phosphoric acid, three times with water and once with acetone. The paper was dried, and the residual radioactivity was measured using a liquid scintillation counter.

For the compound `Cn1c(OCC(=O)c2ccccc2)nc(-c2ccncn2)cc1=O`, the IC50 was 20 nM.

`Cn1c(OCC(=O)c2ccc(Br)cc2)nc(-c2ccncc2F)cc1=O`: the IC50 is 27 nM.

For the compound `Cn1c(OCC(=O)c2ccc(Br)cc2)nc(-c2ccncc2)cc1=O`, the IC50 was 167 nM.

Take `Cn1c(OCC(=O)c2ccc(Br)cc2)nc(-c2ccncn2)cc1=O`: the IC50 amounted to 108 nM.
